Laboratory results taken from patent US20110229412A1, “ANIMAL MODEL OF CENTRAL NEUROPATHIC PAIN AND MEHTODS OF MAKING AND USING THE SAME” (priority 2008, published 2011).
Entries after “also recorded” stand apart in the source; their conditions may differ.

Tested on: rats having DREZs avulsed at T13/L1
Test: Allodynia (von Frey test) in rat T13/L1 DREZ avulsion model of central neuropathic pain
Type: in vivo
Protocol: Rats were anesthetized using isoflurane. Under aseptic condition, the skin was incised in the midline along the posterior thoracolumbar region. The paravertebral muscles were retracted laterally to expose the posterior aspect of the spinal laminae. Laminectomies were performed and the dura mater then incised along the midline to expose the dorsal rootlets of T13 and L1. The dorsal rootlets of T13 and L1 were then avulsed out of the spinal cord on the left side using micronstrumentation. Hemostasis was obtained and a layer of gelfoam placed over the dura. The wound was closed in layers. Perioperative antibiotics were administered in prophylaxis against infection. Subject rats were tested for allodynia of the hindpaws with the von Frey hair test, beginning day one post surgery and continuing daily over the subsequent four weeks. Rat animal model was generated similar to above. In one experiment, DREZ avulsion was unilateral (FIG. 2). In one experiment, DREZ avulsion was bilateral (FIG. 3). Ibudilast was delivered intrathecally daily in a corn oil carrier, with sham controls receiving only the corn oil. […] AV411 was administered to animals avulsed at the T13 and L1 dorsal root entry zones. The compound AV411 was administered to animals subject to the T13 and L1 hind paws. […] The reversal begins after 5-6 injections and continues to reverse behavior until day 33. The contralateral paw began to resolve at day 28 and the ipsilateral paw was still sensitive at day 33. […] Response thresholds on the von Frey test were recorded prior to and across a timecourse after avulsion surgery. Beginning on Day 12 post-surgery, rats (n=4/group) received once daily s.c. injections of either the glial activation inhibitor AV411/Ibudilast (Sigma; 5-mg/kg or 10-mg/kg) or equivolume vehicle (corn oil; 0.5-ml/kg). Daily drug treatment and intermittent behavioral testing continued through 33 days after surgery.

With `CC(C)C(=O)c1c(C(C)C)nn2ccccc12` [AV411, 2-methyl-1-(2-propan-2-ylpyrazolo[1,5-a]pyridin-3-yl)propan-1-one] the “onset of reversal of allodynia” value (once daily s.c. 5-mg/kg or 10-mg/kg from Day 12 post-surgery) was 5-6 injections, the “effect on allodynia induced by unilateral T13/L1 dorsal root avulsion (von Frey test)” value (once daily s.c. 5-mg/kg or 10-mg/kg from Day 12 post-surgery through day 33) was “reversed allodynia; also recorded: induces bilateral mechanical allodynia; also recorded: reverses bilateral allodynia” and the “comparison of the 5 mg and 10 mg dose on allodynia” value (once daily s.c. 5-mg/kg vs 10-mg/kg) was “not differences between the 5 mg and 10 mg dose”. For the same compound, the “day until which reversal of behavior continues” value (once daily s.c. from Day 12 post-surgery, days after surgery) was at most 33 days and the “effect on allodynia in the model” value (unilateral (FIG. 2) or bilateral (FIG. 3) DREZ avulsion, delivered intrathecally daily in corn oil carrier) was “decreases allodynia”.
